Test results from patent publication US20210228653A1, “BACILLUS LICHENIFORMIS STRAIN WITH PROBIOTIC ACTIVITY” (EVONIK DEGUSSA GMBH, priority 2016, published 2021).
Where “and” joins values, the source holds several entries; their conditions need not be identical. Equal values may be shown once.

Set-up: species or system broiler chickens (Vencobb 400)
Conditions: in vivo

## Bacitracin Methylene Disalicyclate [BMD]
  FCR (feed conversion ratio, feed to gain): 1.42 g/g and 1.74 g/g
  FCR compared to the control (in words): reduced
  body weight compared to the control (in words): improved the body weight
